How the values were obtained:
Assay type in all cases: in vivo
[1] = system: Echinochloa oryzacola Vasing.; assay: Test Example 2: herbicidal activity, application during weed generation in submerged conditions; details: Eighteenth Table; application herbicide amount 320 g/ha
Excerpt: (§1) 5 Herbicidal ratio of 90% or more (almost completely withered) 4 Herbicidal ratio of 70% or more and less than 90% 3 Herbicidal ratio of 40% or more and less than 70% 2 Herbicidal ratio of 20% or more and less than 40% 1 Herbicidal ratio of 5% or more and less than 20% 0 Herbicidal ratio of 5% or less (almost no effect) [Test Example 2] Herbicidal Activity Test by Application During Weed Generation in Submerged Conditions After alluvial soil was placed into 1/10000 are of Wagner pot, water was poured and mixed to form a submerged condition having a water depth of 4 cm. Seeds of Echinochloa oryzacola Vasing., Scirpus juncoides, and Monochoria vaginalis were sowed in a mixed manner in the above pot and the pot was placed in the greenhouse of 25° C. to 30° C. to grow the plants. When Echinochloa oryzacola Vasing., Scirpus juncoides, and Monochoria vaginalis were grown to one leaf stage to two leaf stage, the emulsion agent containing the compound of the present invention prepared in accordance with Formulation Example 2 was diluted with water so as to be a predetermined herbicide amount and the diluted compound was applied to the surface of the water. Three weeks after the herbicide application, effects on each plant were investigated in accordance with the criteria of Test Example 1. A: Echinochloa oryzicola Vasing., B: Scirpus juncoides, C: Monochoria vaginalis, D: Leptochloa chinensis, E: Cyperus difformis, F: Digitaria ciliaris, G: Setaria viridis, H: Echinochloa crus-galli var. crus-galli, I: Avena fatua, J: Alopecurus myosuroides, K: Lolium multiflorum Lam., L: Apera spica-venti., M: Abutilon theophrasti, N: Amaranthus retroflexus, O: Chenopodium album, P: Stellaria media, Q: Galium spurium, R: Veronica persica, a: transplanted Oryza sativa, b: directly sowed Oryza sativa, c: Zea mays, d: Glycine max, e: Triticum aestivum, f: Beta vulgaris ssp. vulgaris, and g: Brassica campestris L. The application herbicide amount (g/ha) means an amount that a concentration is adjusted so that, when an application amount is converted into per hectare (1 ha), the herbicide is applied by the number of grams (g) of the described value.

Monochoria vaginalis = assay: as above; details: Eighteenth Table; application herbicide amount 320 g/ha
Excerpt: as §1

Scirpus juncoides = assay: as above; details: Eighteenth Table; application herbicide amount 320 g/ha
Excerpt: as §1

[2] = system: Echinochloa crus-galli var. crus-galli; assay: Test Example 3: herbicidal effect by application to foliage (Wagner pot, water depth 0.1-0.5 cm); details: Nineteenth Table; for H (herbicidal effect grade): application to foliage
Method in brief: (§2)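 Scores (0–5) reflect herbicidal ratio three weeks after a foliar spray: 0 is 5% or less, 5 is 90% or more. Plants had grown 14 days in alluvial soil pots in a 25–30 °C greenhouse before treatment with water-diluted emulsion at a set g/ha.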

Leptochloa chinensis = assay: as above; details: Nineteenth Table; for D (herbicidal effect grade): application to foliage
Method in brief: as §2

[3] = system: directly sowed Oryza sativa; assay: Test Example 3: effect on crop by application to foliage (Wagner pot, water depth 0.1-0.5 cm); details: Nineteenth Table; for b (effect on crop grade): application to foliage
Method in brief: as §2

Triticum aestivum = assay: Test Example 4: effect on crop by application to foliage (diluvial soil, plastic box); details: for e (Triticum aestivum) effect on crop: application to foliage, application herbicide amount 320 g/ha; for e: Application herbicide amount 320 g/ha, effect on crop
Method in brief: (§3)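 Read-out is a 0–5 visual grade of herbicidal ratio (5: ≥90%, almost withered; 0: ≤5%) taken three weeks after treatment. Compound was applied as a diluted emulsion to stem and leaf parts of 14-day greenhouse-grown plants (25° C. to 30° C.) at rates expressed as g/ha.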

Zea mays = assay: as above; details: for b (Zea mays) effect on crop: application to foliage, application herbicide amount 320 g/ha; for b: Application herbicide amount 320 g/ha, effect on crop
Method in brief: as §3

Cyperus difformis = assay: Test Example 3: herbicidal effect by application to foliage (Wagner pot, water depth 0.1-0.5 cm); details: Nineteenth Table, application herbicide amount 320 g/ha; for E (herbicidal effect grade): application to foliage
Method in brief: as §2

[4] = application herbicide amount 400 g/ha
[5] = application herbicide amount 320 g/ha

`Cc1nnc(NC(=O)c2ccc(C(F)(F)F)n3c(C)nnc23)o1` [1-002] was tested, and the “A (Echinochloa oryzicola Vasing.) herbicidal ratio grade” value [1] was 3 (Herbicidal ratio of 40% or more and less than 70%), the “C (Monochoria vaginalis) herbicidal ratio grade” value (Monochoria vaginalis) was 0 (Herbicidal ratio of 5% or less (almost no effect)) and the “B (Scirpus juncoides) herbicidal ratio grade” value (Scirpus juncoides) was 0 (Herbicidal ratio of 5% or less (almost no effect)). For the same compound, the “H (Echinochloa crus-galli var. crus-galli) herbicidal ratio grade” value [2, 4] was 4 (Herbicidal ratio of 70% or more and less than 90%), the “D (Leptochloa chinensis) herbicidal ratio grade” value (Leptochloa chinensis; [4]) was 4 (Herbicidal ratio of 70% or more and less than 90%) and the “b (directly sowed Oryza sativa) effect on crop grade” value [3, 4] was 0 (Herbicidal ratio of 5% or less (almost no effect)). For the same compound, the “e (Triticum aestivum) effect on crop” value (Triticum aestivum) was 1 (Herbicidal ratio of 5% or more and less than 20%) and the “b (Zea mays) effect on crop” value (Zea mays) was 0 (Herbicidal ratio of 5% or less (almost no effect)).
`Cc1nnc(NC(=O)c2ccc(C(F)(F)F)n3c(-c4ccccc4)nnc23)o1` [1-012] was tested, and the “A (Echinochloa oryzicola Vasing.) herbicidal ratio grade” value [1] was 2 (Herbicidal ratio of 20% or more and less than 40%), the “C (Monochoria vaginalis) herbicidal ratio grade” value (Monochoria vaginalis) was 2 (Herbicidal ratio of 20% or more and less than 40%) and the “B (Scirpus juncoides) herbicidal ratio grade” value (Scirpus juncoides) was 2 (Herbicidal ratio of 20% or more and less than 40%). For the same compound, the “H (Echinochloa crus-galli var. crus-galli) herbicidal ratio grade” value [2, 4] was 3 (Herbicidal ratio of 40% or more and less than 70%), the “D (Leptochloa chinensis) herbicidal ratio grade” value (Leptochloa chinensis; [4]) was 5 (Herbicidal ratio of 90% or more (almost completely withered)) and the “b (directly sowed Oryza sativa) effect on crop grade” value [3, 4] was 0 (Herbicidal ratio of 5% or less (almost no effect)). For the same compound, the “e (Triticum aestivum) effect on crop” value (Triticum aestivum) was 0 (Herbicidal ratio of 5% or less (almost no effect)) and the “b (Zea mays) effect on crop” value (Zea mays) was 0 (Herbicidal ratio of 5% or less (almost no effect)).
For `Cc1nnc(NC(=O)c2ccc(C(F)(F)F)n3c(CS(C)(=O)=O)nnc23)o1` [1-037], the “A (Echinochloa oryzicola Vasing.) herbicidal ratio grade” value [1] was 2 (Herbicidal ratio of 20% or more and less than 40%), the “B (Scirpus juncoides) herbicidal ratio grade” value (Scirpus juncoides) was 2 (Herbicidal ratio of 20% or more and less than 40%) and the “E (Cyperus difformis) herbicidal ratio grade” value (Cyperus difformis) was 5 (Herbicidal ratio of 90% or more (almost completely withered)). The “H (Echinochloa crus-galli var. crus-galli) herbicidal ratio grade” value [2, 5] was 5 (Herbicidal ratio of 90% or more (almost completely withered)), the “D (Leptochloa chinensis) herbicidal ratio grade” value (Leptochloa chinensis; [5]) was 5 (Herbicidal ratio of 90% or more (almost completely withered)) and the “b (directly sowed Oryza sativa) effect on crop grade” value [3, 5] was 2 (Herbicidal ratio of 20% or more and less than 40%). The “e (Triticum aestivum) effect on crop” value (Triticum aestivum) was 3 (Herbicidal ratio of 40% or more and less than 70%) and the “b (Zea mays) effect on crop” value (Zea mays) was 0 (Herbicidal ratio of 5% or less (almost no effect)).
In the case of `Cc1nnc(NC(=O)c2ccc(C(F)(F)F)n3c(S(C)(=O)=O)nnc23)o1` [1-040], the “A (Echinochloa oryzicola Vasing.) herbicidal ratio grade” value [1] is reported as 3 (Herbicidal ratio of 40% or more and less than 70%), the “B (Scirpus juncoides) herbicidal ratio grade” value (Scirpus juncoides) is reported as 2 (Herbicidal ratio of 20% or more and less than 40%) and the “E (Cyperus difformis) herbicidal ratio grade” value (Cyperus difformis) is reported as 4 (Herbicidal ratio of 70% or more and less than 90%). The “H (Echinochloa crus-galli var. crus-galli) herbicidal ratio grade” value [2, 5] was 4 (Herbicidal ratio of 70% or more and less than 90%), the “D (Leptochloa chinensis) herbicidal ratio grade” value (Leptochloa chinensis; [5]) was 5 (Herbicidal ratio of 90% or more (almost completely withered)) and the “b (directly sowed Oryza sativa) effect on crop grade” value [3, 5] was 3 (Herbicidal ratio of 40% or more and less than 70%). The “e (Triticum aestivum) effect on crop” value (Triticum aestivum) was 3 (Herbicidal ratio of 40% or more and less than 70%) and the “b (Zea mays) effect on crop” value (Zea mays) was 0 (Herbicidal ratio of 5% or less (almost no effect)).
With `CCS(=O)(=O)c1nnc2c(C(=O)Nc3nnc(C)o3)ccc(C(F)(F)F)n12` [1-041] the “A (Echinochloa oryzicola Vasing.) herbicidal ratio grade” value [1] was 2 (Herbicidal ratio of 20% or more and less than 40%), the “B (Scirpus juncoides) herbicidal ratio grade” value (Scirpus juncoides) was 3 (Herbicidal ratio of 40% or more and less than 70%) and the “E (Cyperus difformis) herbicidal ratio grade” value (Cyperus difformis) was 5 (Herbicidal ratio of 90% or more (almost completely withered)). The “H (Echinochloa crus-galli var. crus-galli) herbicidal ratio grade” value [2, 5] was 4 (Herbicidal ratio of 70% or more and less than 90%), the “D (Leptochloa chinensis) herbicidal ratio grade” value (Leptochloa chinensis; [5]) was 5 (Herbicidal ratio of 90% or more (almost completely withered)) and the “b (directly sowed Oryza sativa) effect on crop grade” value [3, 5] was 2 (Herbicidal ratio of 20% or more and less than 40%). The “e (Triticum aestivum) effect on crop” value (Triticum aestivum) was 3 (Herbicidal ratio of 40% or more and less than 70%) and the “b (Zea mays) effect on crop” value (Zea mays) was 0 (Herbicidal ratio of 5% or less (almost no effect)).
With `COc1cccc(-c2nnc3c(C(=O)Nc4nnc(C)o4)ccc(C(F)(F)F)n23)c1` [1-046] the “A (Echinochloa oryzicola Vasing.) herbicidal ratio grade” value [1] was 4 (Herbicidal ratio of 70% or more and less than 90%), the “E (Cyperus difformis) herbicidal ratio grade” value (Cyperus difformis) was 3 (Herbicidal ratio of 40% or more and less than 70%) and the “H (Echinochloa crus-galli var. crus-galli) herbicidal ratio grade” value [2, 5] was 5 (Herbicidal ratio of 90% or more (almost completely withered)). The “D (Leptochloa chinensis) herbicidal ratio grade” value (Leptochloa chinensis; [5]) was 3 (Herbicidal ratio of 40% or more and less than 70%), the “b (directly sowed Oryza sativa) effect on crop grade” value [3, 5] was 3 (Herbicidal ratio of 40% or more and less than 70%) and the “e (Triticum aestivum) effect on crop” value (Triticum aestivum) was 0 (Herbicidal ratio of 5% or less (almost no effect)). For the same compound, the “b (Zea mays) effect on crop” value (Zea mays) was 1 (Herbicidal ratio of 5% or more and less than 20%).
For `Cc1nnc(NC(=O)c2ccc(C(F)(F)F)n3c(CO)nnc23)o1` [1-067], the “E (herbicidal effect grade)” value (Cyperus difformis) was 5 (Herbicidal ratio of 90% or more (almost completely withered)), the “H (herbicidal effect grade)” value [2, 5] was 5 (Herbicidal ratio of 90% or more (almost completely withered)) and the “D (herbicidal effect grade)” value (Leptochloa chinensis; [5]) was 5 (Herbicidal ratio of 90% or more (almost completely withered)). The “b (effect on crop grade)” value [3, 5] was 2 (Herbicidal ratio of 20% or more and less than 40%), the e (Triticum aestivum) was 0 (Herbicidal ratio of 5% or less (almost no effect)) and the b (Zea mays) was 2 (Herbicidal ratio of 20% or more and less than 40%).
`Cc1nnc(NC(=O)c2cc(C)c(C(F)(F)F)n3c(C(C)C)nnc23)o1` [1-075] was tested, and the “E (herbicidal effect grade)” value (Cyperus difformis) was 4 (Herbicidal ratio of 70% or more and less than 90%), the “H (herbicidal effect grade)” value [2, 5] was 5 (Herbicidal ratio of 90% or more (almost completely withered)) and the “D (herbicidal effect grade)” value (Leptochloa chinensis; [5]) was 4 (Herbicidal ratio of 70% or more and less than 90%). For the same compound, the “b (effect on crop grade)” value [3, 5] was 1 (Herbicidal ratio of 5% or more and less than 20%), the e (Triticum aestivum) was 0 (Herbicidal ratio of 5% or less (almost no effect)) and the b (Zea mays) was 0 (Herbicidal ratio of 5% or less (almost no effect)).
`C#CC[S+]([O-])c1nnc2c(C(=O)Nc3nnc(C)o3)ccc(C(F)(F)F)n12` (stereo not shown) [1-077] was tested, and the “E (herbicidal effect grade)” value (Cyperus difformis) was 3 (Herbicidal ratio of 40% or more and less than 70%), the “H (herbicidal effect grade)” value [2, 5] was 5 (Herbicidal ratio of 90% or more (almost completely withered)) and the “D (herbicidal effect grade)” value (Leptochloa chinensis; [5]) was 4 (Herbicidal ratio of 70% or more and less than 90%). For the same compound, the “b (effect on crop grade)” value [3, 5] was 0 (Herbicidal ratio of 5% or less (almost no effect)), the e (Triticum aestivum) was 0 (Herbicidal ratio of 5% or less (almost no effect)) and the b (Zea mays) was 0 (Herbicidal ratio of 5% or less (almost no effect)).
In the case of `Cc1nnc(NC(=O)c2ccc(C(F)(F)F)n3c(Nc4ccccc4)nnc23)o1` [1-082], the “E (herbicidal effect grade)” value (Cyperus difformis) is reported as 4 (Herbicidal ratio of 70% or more and less than 90%), the “H (herbicidal effect grade)” value [2, 5] is reported as 4 (Herbicidal ratio of 70% or more and less than 90%) and the “D (herbicidal effect grade)” value (Leptochloa chinensis; [5]) is reported as 4 (Herbicidal ratio of 70% or more and less than 90%). The “b (effect on crop grade)” value [3, 5] was 0 (Herbicidal ratio of 5% or less (almost no effect)), the e (Triticum aestivum) was 0 (Herbicidal ratio of 5% or less (almost no effect)) and the b (Zea mays) was 0 (Herbicidal ratio of 5% or less (almost no effect)).
`CCCSc1nnc2c(C(=O)Nc3nnc(C)o3)ccc(C(F)(F)F)n12` [1-087] was tested, and the “A (Echinochloa oryzicola Vasing.) herbicidal ratio grade” value [1] was 4 (Herbicidal ratio of 70% or more and less than 90%), the “C (Monochoria vaginalis) herbicidal ratio grade” value (Monochoria vaginalis) was 3 (Herbicidal ratio of 40% or more and less than 70%) and the “E (herbicidal effect grade)” value (Cyperus difformis) was 5 (Herbicidal ratio of 90% or more (almost completely withered)). For the same compound, the “H (herbicidal effect grade)” value [2, 5] was 5 (Herbicidal ratio of 90% or more (almost completely withered)), the “D (herbicidal effect grade)” value (Leptochloa chinensis; [5]) was 5 (Herbicidal ratio of 90% or more (almost completely withered)) and the “b (effect on crop grade)” value [3, 5] was 1 (Herbicidal ratio of 5% or more and less than 20%). For the same compound, the e (Triticum aestivum) was 2 (Herbicidal ratio of 20% or more and less than 40%) and the b (Zea mays) was 0 (Herbicidal ratio of 5% or less (almost no effect)).

Source: US9708314B2, “Heterocyclic amide compound” (NISSAN CHEMICAL INDUSTRIES, LTD., priority 2013, dated 2017)
